Test results published in patent US5955500A (G. D. Searle & Co., priority 1997, dated 1999).
Where “and” joins values, the source holds several entries; their conditions need not be identical. Identical values can stand only once. Counter-ions that a name gives are not always drawn. Like-named read-outs stand apart in the source and are kept apart here.

Columns and labels:
canine heart = conditions: for AH time / Heart rate / Mean arterial pressure: mean ± SE, listed as 50/50S
[1] = pH 5, individual replicates; listed as 50, hydrochloride
[2] = system: supraventricular tachycardia; conditions: intravenous; cited from earlier work
[3] = 0.1 mg/kg i.v., 0 min, hydrochloride
[4] = 0.1 mg/kg i.v., 1 min, hydrochloride
[5] = 0.1 mg/kg i.v., 2 min, hydrochloride
[6] = 0.1 mg/kg i.v., 3 min, hydrochloride
[7] = 0.1 mg/kg i.v., 4 min, hydrochloride
[8] = 0.1 mg/kg i.v., 5 min, hydrochloride
[9] = 0.2 mg/kg i.v., 0 min, hydrochloride
[10] = 0.2 mg/kg i.v., 1 min, hydrochloride
[11] = 0.2 mg/kg i.v., 2 min, hydrochloride
[12] = 0.2 mg/kg i.v., 3 min, hydrochloride
[13] = 0.2 mg/kg i.v., 4 min, hydrochloride
[14] = 0.2 mg/kg i.v., 5 min, hydrochloride
[15] = 0.4 mg/kg i.v., 0 min, hydrochloride
[16] = 0.4 mg/kg i.v., 1 min, hydrochloride
[17] = 0.4 mg/kg i.v., 2 min, hydrochloride
[18] = 0.4 mg/kg i.v., 3 min, hydrochloride
[19] = 0.4 mg/kg i.v., 4 min, hydrochloride
[20] = 0.4 mg/kg i.v., 5 min, hydrochloride

COc1ccc(CCN(C)CCCC(C#N)(c2ccc(OC)c(OC)c2)C(C)C)cc1OC (racemic) [racemic verapamil, benzeneacetonitrile, α-[3-[[2-(3,4-dimethoxyphenyl)ethyl]methylamino]propyl]-3,4-dimethoxy-α-(1-methylethyl) hydrochloride, reference compound]
AH time (canine heart; [3]): 97 ± 16 ms
Heart rate (canine heart; [3]): 143 ± 11 beats per min
Mean arterial pressure (canine heart; [3]): 92 ± 4 mmHg
AH time (canine heart; [4]): 107 ± 12 ms
Heart rate (canine heart; [4]): 135 ± 6 beats per min
Mean arterial pressure (canine heart; [4]): 97 ± 4 mmHg
AH time (canine heart; [5]): 105 ± 9 ms
Heart rate (canine heart; [5]): 122 ± 7 beats per min
Mean arterial pressure (canine heart; [5]): 101 ± 5 mmHg
AH time (canine heart; [6]): 106 ± 8 ms
Heart rate (canine heart; [6]): 118 ± 6 beats per min
Mean arterial pressure (canine heart; [6]): 102 ± 5 mmHg
AH time (canine heart; [7]): 104 ± 7 ms
Heart rate (canine heart; [7]): 119 ± 7 beats per min
Mean arterial pressure (canine heart; [7]): 100 ± 4 mmHg
AH time (canine heart; [8]): 104 ± 6 ms
Heart rate (canine heart; [8]): 125 ± 8 beats per min
Mean arterial pressure (canine heart; [8]): 104 ± 4 mmHg
AH time (canine heart; [9]): 96 ± 8 ms
Heart rate (canine heart; [9]): 169 ± 4 beats per min
Mean arterial pressure (canine heart; [9]): 88 ± 5 mmHg
AH time (canine heart; [10]): 117 ± 11 ms
Heart rate (canine heart; [10]): 164 ± 8 beats per min
Mean arterial pressure (canine heart; [10]): 90 ± 3 mmHg
AH time (canine heart; [11]): 112 ± 7 ms
Heart rate (canine heart; [11]): 149 ± 10 beats per min
Mean arterial pressure (canine heart; [11]): 101 ± 4 mmHg
AH time (canine heart; [12]): 118 ± 9 ms
Heart rate (canine heart; [12]): 149 ± 10 beats per min
Mean arterial pressure (canine heart; [12]): 101 ± 6 mmHg
AH time (canine heart; [13]): 117 ± 8 ms
Heart rate (canine heart; [13]): 147 ± 12 beats per min
Mean arterial pressure (canine heart; [13]): 101 ± 4 mmHg
AH time (canine heart; [14]): 124 ± 8 ms
Heart rate (canine heart; [14]): 147 ± 13 beats per min
Mean arterial pressure (canine heart; [14]): 100 ± 5 mmHg
Occurrence of AV conduction block (canine heart; 0.2 mg/kg i.v., listed as 50R/50S-verapamil, hydrochloride): 3 animals
AH time (canine heart; [15]): 101 ± 10 ms
Heart rate (canine heart; [15]): 180 ± 11 beats per min
Mean arterial pressure (canine heart; [15]): 86 ± 8 mmHg
AH time (canine heart; [16]): 112 ± 10 ms
Heart rate (canine heart; [16]): 171 ± 7 beats per min
Mean arterial pressure (canine heart; [16]): 87 ± 8 mmHg
AH time (canine heart; [17]): 116 ± 5 ms
Heart rate (canine heart; [17]): 162 ± 3 beats per min
Mean arterial pressure (canine heart; [17]): 92 ± 7 mmHg
AH time (canine heart; [18]): 117 ± 7 ms
Heart rate (canine heart; [18]): 163 ± 5 beats per min
Mean arterial pressure (canine heart; [18]): 97 ± 6 mmHg
AH time (canine heart; [19]): 119 ± 8 ms
Heart rate (canine heart; [19]): 162 ± 4 beats per min
Mean arterial pressure (canine heart; [19]): 95 ± 8 mmHg
AH time (canine heart; [20]): 113 ± 5 ms
Heart rate (canine heart; [20]): 161 ± 9 beats per min
Mean arterial pressure (canine heart; [20]): 98 ± 6 mmHg
Occurrence of second and third degree AV conduction block (canine heart; 0.4 mg/kg i.v., listed as 50R/50S-verapamil, hydrochloride): 7 animals
Peak effect on HR, in words (canine heart; dog, in vivo): drastic increase in HR
QTc interval compared with 100R-verapamil, in words (canine heart; dog, in vivo): significantly increased compared with 100R-verapamil
Interaction between MAP and HR (multiple linear regression), in words (canine heart; increase in HR against drop in MAP): greatest rate of increase in HR as opposed to a drop in MAP
Sinus node recovery time (SNRT), significance (canine heart; paced at 200 beats/min): significant decrease
Concentration in octanol [1]: 6020 ng/mL and 6360 ng/mL and 5830 ng/mL
Concentration in water [1]: 5050 ng/mL and 4800 ng/mL and 4750 ng/mL
Rapid and reliable control of supraventricular tachycardia, in words [2]: work well
